Results: patent publication US6011000A, “Compositions for the treatment of blood disorders” (priority 1995, dated 2000)
Read-outs that look alike come from different tables or passages of the source.

Columns and labels:
[1] = system: fetal globin (cultured erythroid progenitor cells); settings: cited from earlier work
[2] = system: fetal globin mRNA (human erythroleukemia cells); assay: Fetal globin mRNA in erythroleukemia cells (primer extension); assay type: cell-based
Description: Compounds were tested for increased expression of the human globin genes in human erythroid cells. In addition, as the cell line being tested is a tumor cell line, the assay determines if differentiation, a growth inhibitory effect on cancer cells, is induced by the compounds tested. Human erythroleukemia cells were cultured in RPMI media with 10% fetal calf serum alone or with treatment with various compounds for 4 days. Globin MRNA was quantitated by primer extension analysis. Fetal globin mRNA was compared to the amount of fetal globin mRNA produced in untreated cells during the same culture period. The quantitation was expressed as a percent of alpha globin MRNA which was constant. Results are expressed proportional to α-globin mRNA (Table 3).

anemic baboon = assay: In vivo reticulocyte proliferation, globin expression and blood counts in anemic (phlebotomized) baboons
Description: Experiments were performed to determine if administration of the chemical compositions could induce fetal globin gene expression in an in vivo model similar to humans (S. P. Perrine et al., Brit. J. Haematol. 88:555-61, 1994). Briefly, chemicals were prepared as sterile pharmaceutical solutions in pH adjusted sterile water. A variety of chemical compositions were administered sequentially to some baboons. After administration of one compound, a wash-out period with no compound administration was maintained until reticulocytes returned to base line prior to administration of the next compound. This was done, at least partly, to compare the magnitude of response which occurred within the same individual animal to different compounds.
Briefly, juvenile female baboons (2 years old) were catheterized with arterial and venous catheters and phlebotomized gradually every day to maintain a moderate anemia of 7.0 to 7.5 grams hemoglobin/dl. Fetal reticulocytes, the newly produced red blood cells containing fetal globin, were assayed using a monoclonal antibody against fetal globin (HbF) as described by G. Dover et al. (Blood 67:735-38, 1986). Briefly, blood was stained with two antibodies, one specific for reticulocytes and another against fetal globin protein. The amount of antibody bound cells was determined by FACS analysis. Globin chain synthesis was assayed as described by J. B. Clegg et al. (J. Mol. Biol. 19:91-108, 1966). Briefly, reticulocytes were radio-labeled with ^3 H-leucine which was incorporated in equal proportions into actively synthesized globin chains. After incubation in leucine-free media, cells were washed, and globin proteins were separated and purified by column chromatography. Radioactivity incorporated into each peak is compared and the ratios of gamma to gamma plus beta globin calculated. Each animal served as its own control with baseline monitoring assays performed for 4-6 weeks before any drug was administered. Phlebotomy was continued daily, so that peripheral HbF levels in the animals were not considered to be accurate over the short treatment time-frames and were not monitored. Safety monitoring was performed by frequent physical examinations, quantitation of food eaten, activity and frequent chemistry and hematology monitoring. Complete blood counts were assayed before, during and after treatment. Results presented were not adjusted to account for the daily phlebotomy.

[3] = system: fetal globin (gamma globin); assay: Fetal globin expression in erythroid progenitor cells from cord blood; assay type: cell-based, human; settings: for Gamma/(Gamma + Beta): Exp. B, 12-13 days, untreated 25.4%, 27.5%
Description: Compositions were tested for activity in inducing fetal globin expression and protein production in erythroid progenitor cells cultured from human cord blood and analyzed as described by S. P. Perrine et al. (Blood 74: 454-60, 1989). Briefly, mononuclear cells were cultured in IMDM with 30% fetal calf serum and 2 units erythropoietin per ml to induce erythroid differentiation. Colonies were harvested on day 12-13, incubated with radio-labelled (^3 H) leucine, and further incubated in leucine-free media, still in the presence of compounds, overnight. Globin composition in the erythroid cells was analyzed by laser densitometry of electrophoretically separated globin chains stained with Coomassie blue, and by autoradiography. Treated cells were incubated for 12-13 days (Table 2, Experiments A and B) or overnight (Table 2, Experiment C) in the presence of the indicated compounds and compared to untreated control cells cultured from the same human subject.

fetal globin production = settings: cited from earlier work
[4] = system: proximal promoter of the gamma globin gene (K562 cells); assay: Gamma globin promoter-neomycin transfection (61 bp proximal promoter), G418-resistant colonies; assay type: cell-based, human; settings: 1 mM, 8 weeks in G418
Description: Gamma globin promoter-neomycin transfection experiments were performed to determine if compounds act by inducing an increase in activity from the proximal promoter of the gamma globin gene. Constructs containing 61 bp of the proximal gamma globin promoter were linked to the reporter gene for neomycin phosphotransferase (NEO) and transfected into permissive K562 cells by electroporation. After 18 hours, transfected cells were passed at 10^3 cells per well into RPMI media containing G418 (neomycin), which kills all mammalian cells unless the gene for NEO is expressed. Phenoxyacetic acid and thiophenoxyacetic acid were added to some of the cells plated into the RPMI/G418 media at concentrations of 1 mM. Cultures were incubated for 8 weeks with media changes performed as needed. Colonies which survived and grew in the presence of G418 were scored and the number of such colonies was compared to those generated when the cells were plated into G418 media without the test compounds. […] There was a greater than 6-fold (>600%) increase in proportions of colonies surviving the presence of phenoxyacetic acid (6/24 wells) and a three-fold (300%) increase in survival in the presence of thiophenoxyacetic acid (3/24 wells).

[5] = system: system A transport (K562 cells and nucleated erythroblasts from fetal liver); assay: Effects on system A amino acid transport (3H-MAIB uptake); assay type: cell-based, human
Description: Inhibition of nutrient uptake is undesirable for treatment of anemias. Methyl aminoisobutyric acid (MAIB) labeled with tritium (^3 H) is normally taken up by system A amino acid transport. Cold (unlabeled) compounds were added to cultures containing ^3 H-MAIB and incubated for 1 hour. Cells were harvested and the amount of ^3 H taken up by cells was quantitated by scintillation counting.

For `O=C(O)CCCc1ccccc1` [4-phenyl butyrate], the “fetal globin expressing reticulocyte proliferation” value [1] is listed as “decrease fetal globin expressing reticulocyte proliferation” and the “relative proportions of fetal globin per cell” value [1] is listed as “increase relative proportions of fetal globin per cell”.

For `CCCC(=O)OCC(O)CO` (stereo not shown) [MB, monobutyrin], the “induction of fetal globin mRNA” value [2] was “significantly increased the induction of fetal globin MRNA”, the “Gamma Globin mRNA (increase)” value ([2]; 1.0 mM, 4 days) was 26% and the Gamma/Alpha ([2]; 1.0 mM, 4 days, untreated 0.46) was 0.73. For the same compound, the “increase in fetal reticulocytes above basal levels” value (anemic baboon; 500 to 2,000 mg/kg i.v. daily, 4 days) was 220% and the Fetal reticulocytes (anemic baboon; 500 to 2,000 mg/kg i.v. daily, 4 days, from 12%) was 27%.

In the case of `CC(CO)C(N)=O` (stereo not shown) [MHPP, 2 methyl-3-hydroxypropionamide], the “Gamma/(Gamma + Beta)” value ([3]; 0.05 mM) is reported as 29.8%, the “Gamma/(Gamma + Beta)” value ([3]; 1.0 mM) is reported as 24.0% and the “expression of fetal globin” value ([3]; concentrations above 0.25 mM (FIG. 4)) is reported as “decreased the expression of fetal globin”. The fetal globin expression ([3]; concentrations below 0.25 mM) was “increased fetal globin expression”.

For `CC(=O)Oc1ccccc1` [Phenyl acetate], the “fetal globin expressing reticulocyte proliferation” value [1] is given as “decrease fetal globin expressing reticulocyte proliferation” and the “relative proportions of fetal globin per cell” value [1] is given as “increase relative proportions of fetal globin per cell”.

For `CCCC(=O)[O-].[Na+]` [sodium butyrate], the “stimulation of fetal globin production” value (fetal globin production) is given as “effective in stimulating fetal globin production”.

With `O=C(O)CSc1ccccc1` [thiophenoxyacetic acid] the “increase in proportions of colonies surviving” value [4] was “three-fold”, the colonies surviving ([4]; none of 24 wells without compound) was 3/24 and the activation at 1000 µM ([4]; Homo sapiens, K562, 1344 h, read-out: increase in proportions of colonies surviving) was 300%.

With `CCCC(=O)OCC(COC(=O)CCC)OC(=O)CCC` [tributyrin] the Gamma globin expression (anemic baboon; 500 to 750 mg/kg per day i.v., 3 days, from 0%) was “about 2.2 % of total non-alpha globin expression” and the Fetal reticulocytes (anemic baboon; 500 to 750 mg/kg per day i.v., 3 days, from 10%) was 14%.

In the case of `CCC(N)C(=O)O` (stereo not drawn) [α-amino-n-butyric acid], the “stimulation of fetal globin production” value (fetal globin production) is given as “effective in stimulating fetal globin production”.

For `CC(=Cc1ccccc1)C(=O)O` [α-methyl cinnamic acid], the “system A (neutral) amino acid transport” value [5] was “do not significantly alter system A transport of amino acids”.

In the case of `CC(Cc1ccccc1)C(=O)O` (stereo not drawn) [α-methyl hydrocinnamic acid], the “production of blood cell types” value (anemic baboon; baboons) is reported as “stimulated production of many different cell types”, the “red blood cell count” value (anemic baboon; first baboon, infusion 500-1,000 mg/kg, 5 days, from 2.28) is reported as 3.53 10^6 red blood cells per microliter and the “white blood cell count” value (anemic baboon; first baboon, infusion 500-1,000 mg/kg, 5 days, from 4.1) is reported as 11.5. For the same compound, the “total number of reticulocytes” value (anemic baboon; first baboon, infusion 500-1,000 mg/kg, 5 days, from 5.6%) was 11%, the “total hemoglobin after treatment” value (anemic baboon; first baboon, infusion 500-1,000 mg/kg, 5 days, from 6.4) was 7.9 grams/dl and the “packed red blood cell volume” value (anemic baboon; first baboon, infusion 500-1,000 mg/kg, 5 days, from 19.5%) was 31.2 % of total blood volume. For the same compound, the platelet count (anemic baboon; first baboon, infusion 500-1,000 mg/kg, 5 days, from 26.7) was 46.8 10^4 cells/μl, the “rise in total hemoglobin” value (anemic baboon; first baboon, infusion 500-1,000 mg/kg, 5 days, over 3 days) was 1.5 grams/dl and the “rise in total hemoglobin” value (anemic baboon; second baboon, 500-700 mg/kg, 5 days) was 1.4 grams. The “Red blood cell counts” value (anemic baboon; second baboon, 500-700 mg/kg, 5 days, from 2.3×10^6) was 2.82×10^6, the Total hemoglobin (anemic baboon; second baboon, 500-700 mg/kg, 5 days, from 4.6) was 6.0 g/dL and the “packed red blood cell volume” value (anemic baboon; second baboon, 500-700 mg/kg, 5 days, from 14.5%) was 20.2%. The “White blood cell counts (maximum)” value (anemic baboon; second baboon, 500-700 mg/kg, 5 days, from 8,700) was 14,300, the “platelet counts (high)” value (anemic baboon; second baboon, 500-700 mg/kg, 5 days, from 328,000) was 486,000 and the “Total fetal globin synthesis” value (anemic baboon; second baboon, 500-700 mg/kg, after 5 days, from 4.0%) was 10.8%. For the same compound, the adverse effects (anemic baboon; third baboon, same dose, 5 days) was “No adverse affects were observed”, the “Fetal globin protein synthesis” value (anemic baboon; third baboon, same dose, 5 days, from 0%) was 6.2 % of non-alpha globin and the “fetal hemoglobin producing reticulocytes” value (anemic baboon; third baboon, same dose, after 5 days (FIG. 8), from 0%) was 10%. For the same compound, the “system A (neutral) amino acid transport” value ([5]; 1 hour, 3H-MAIB (FIG. 12)) was “caused no significant inhibition and actually increased uptake of nutrients into cells”.
